Assay results taken from US20130142882A1, “METHODS AND COMPOSITIONS FOR TREATMENT, MODIFICATION AND MANAGEMENT OF BONE CANCER PAIN” (GOLDEN BIOTECHNOLOGY CORPORATION, priority 2011, published 2013).
Several values for one entry are separate records, joined by “and”; a condition that tells them apart may be missing. Equal entries are not always repeated.

Tested on: rat model of bone cancer pain (Walker 256 rat mammary gland carcinoma cells injected into the right tibia)
Assay: Mechanical allodynia (Von Frey test) in a rat model of bone cancer pain
Format: in vivo, Rat (Sprague-Dawley)
Experimental: The objective of this study was to assess the potential anti-nociceptive and anti-tumourigenic effects of Compound 1, at doses of 15, 30 and 45 mg/kg, in an animal model of bone cancer pain. Metastasis of cancer cells to the bone was modeled by injecting Walker 256 rat mammary gland carcinoma cells into the medullary cavity of the right tibia (Mao-Yinga, et al. A rat model of bone cancer pain induced by intra-tibia inoculation of Walker 256 mammary gland carcinoma cells. Biochem Biophys Res Commun 2006; 345: 1292-1298). The development of mechanical allodynia was monitored using an established behavioural test (Von Frey test). Treatment administration was chronic, from the day of surgery, and administered twice daily for 21 days to determine whether there was a prophylactic effect on the development of mechanical allodynia. Zoledronic acid was used as a reference substance. No regulatory test guidelines were applicable to this study.
Rats have been studied in this model of bone cancer pain. The route of administration of Compound 1 and vehicle was oral. The doses of Compound 1 were 15, 30 and 45 mg/kg, twice a day (approximately 10 h apart) for 21 days.
The dose of zoledronic acid was 30 μg/kg, as a single administration, every second day from the day of surgery, based on historical data. The route of administration of zoledronic acid was subcutaneous.
The dose volume for test substance and vehicle treatments was 5 mL/kg. The vehicle for Compound 1 was corn oil. Each rat allocated to test substance or vehicle treatments received an oral dose, by gavage, twice daily (approximately 8 am and 6 pm) for 21 consecutive days. The dose volume for the reference substance treatment was 1 mL/kg. Each rat allocated to reference substance treatment received a single subcutaneous dose, by injection (approximately 8 am) every second day from the day of surgery.
Cell preparation. Walker 256 rat mammary gland carcinoma cells (obtained from the American Type Culture Collection (ATCC)) were harvested from sub-confluent cultures growing in vitro and the number of viable cells determined. Cells were then re-suspended in sterile phosphate buffered saline (PBS) at a concentration of 4×10^5 cells. Female Sprague-Dawley rats were intratibially injected in the right leg with 4×10^5 Walker 256 rat mammary gland carcinoma cells in a volume of 6 μL as detailed in Surgical procedure below.
Baseline behavioural testing. The rats were moved to the procedure room 5 days prior to behavioural testing. The rats were then housed, dosed and observed in the procedure room. The behavioural test was performed on all rats on 2 separate occasions prior to surgery, to establish baseline values. Pre-surgery baseline values were taken as the data from the final (second) day of testing (the data from the first day of testing was not included but classed as part of the acclimatisation).
Mechanical allodynia (Von Frey test): Each animal was placed in a wire mesh cage and a series of Von Frey filaments were applied to the plantar surface of the hind paw, from below. The filaments were applied in ascending order (starting with the weakest force), and the withdrawal threshold for both the left and right hind paws were evaluated. Each filament was indented on the mid-plantar surface of the foot to the point where it just started to bend; this was repeated approximately 8 to 10 times per filament at a frequency of approximately 1 Hz. The withdrawal threshold was defined as the lowest force of two or more consecutive Von Frey filaments to elicit a reflex withdrawal response (i.e. a brief paw flick).
Surgical procedure. The animals were surgically prepared over 2 days. Each rat was anaesthetised as necessary with isofluorane in […]. The surface around the incision site was shaved and sterilised. Under aseptic conditions, an incision was made in the skin over the top of the right tibia to expose the tibia head with minimal damage. […]

[1] = 15 mg/kg p.o. twice daily, Day 6, left paw
[2] = 15 mg/kg p.o. twice daily, Day 6, right paw
[3] = 15 mg/kg p.o. twice daily, Day 12, left paw
[4] = 15 mg/kg p.o. twice daily, Day 12, right paw
[5] = 15 mg/kg p.o. twice daily, Day 14, left paw
[6] = 15 mg/kg p.o. twice daily, Day 14, right paw
[7] = 15 mg/kg p.o. twice daily, Day 19, left paw
[8] = 15 mg/kg p.o. twice daily, Day 19, right paw
[9] = 15 mg/kg p.o. twice daily, Day 21, left paw
[10] = 15 mg/kg p.o. twice daily, Day 21, right paw
[11] = 15 mg/kg p.o. twice daily, Pre-Surgery, left paw
[12] = 15 mg/kg p.o. twice daily, Pre-Surgery, right paw
[13] = 30 mg/kg p.o. twice daily, Day 6, left paw
[14] = 30 mg/kg p.o. twice daily, Day 6, right paw
[15] = 30 mg/kg p.o. twice daily, Day 12, left paw
[16] = 30 mg/kg p.o. twice daily, Day 12, right paw
[17] = 30 mg/kg p.o. twice daily, Day 14, left paw
[18] = 30 mg/kg p.o. twice daily, Day 14, right paw
[19] = 30 mg/kg p.o. twice daily, Day 19, left paw
[20] = 30 mg/kg p.o. twice daily, Day 19, right paw
[21] = 30 mg/kg p.o. twice daily, Day 21, left paw
[22] = 30 mg/kg p.o. twice daily, Day 21, right paw
[23] = 30 mg/kg p.o. twice daily, Pre-Surgery, left paw
[24] = 30 mg/kg p.o. twice daily, Pre-Surgery, right paw
[25] = 45 mg/kg p.o. twice daily, Day 6, left paw
[26] = 45 mg/kg p.o. twice daily, Day 6, right paw
[27] = 45 mg/kg p.o. twice daily, Day 12, left paw
[28] = 45 mg/kg p.o. twice daily, Day 12, right paw
[29] = 45 mg/kg p.o. twice daily, Day 14, left paw
[30] = 45 mg/kg p.o. twice daily, Day 14, right paw
[31] = 45 mg/kg p.o. twice daily, Day 19, left paw
[32] = 45 mg/kg p.o. twice daily, Day 19, right paw
[33] = 45 mg/kg p.o. twice daily, Day 21, left paw
[34] = 45 mg/kg p.o. twice daily, Day 21, right paw
[35] = 45 mg/kg p.o. twice daily, Pre-Surgery, left paw
[36] = 45 mg/kg p.o. twice daily, Pre-Surgery, right paw

## COC1=C(OC)C(O)C(C/C=C(\C)CC/C=C(\C)CCC=C(C)C)C(C)C1=O (stereo not drawn) [Compound 1, 4-hydroxy-2,3-dimethoxy-6-methyl-5-(3,7,11-trimethyldodeca-2,6,10-trienyl)cyclohex-2-enone]
[1]
  Withdrawal Threshold (Log 10 (force (g) × 10 000)) on Day Post-Operative: 5.33 Log 10 (force (g) × 10 000)
  Withdrawal threshold (g) on day post-operative: 21.65 g
[2]
  Withdrawal Threshold (Log 10 (force (g) × 10 000)) on Day Post-Operative: 5.31 Log 10 (force (g) × 10 000)
  Withdrawal threshold (g) on day post-operative: 20.81 g
[3]
  Withdrawal Threshold (Log 10 (force (g) × 10 000)) on Day Post-Operative: 5.19 Log 10 (force (g) × 10 000)
  Withdrawal threshold (g) on day post-operative: 16.27 g
[4]
  Withdrawal Threshold (Log 10 (force (g) × 10 000)) on Day Post-Operative: 4.99 Log 10 (force (g) × 10 000)
  Withdrawal threshold (g) on day post-operative: 11.12 g
[5]
  Withdrawal Threshold (Log 10 (force (g) × 10 000)) on Day Post-Operative: 5.18 Log 10 (force (g) × 10 000)
  Withdrawal threshold (g) on day post-operative: 16.61 g
[6]
  Withdrawal Threshold (Log 10 (force (g) × 10 000)) on Day Post-Operative: 4.91 Log 10 (force (g) × 10 000)
  Withdrawal threshold (g) on day post-operative: 9.97 g
[7]
  Withdrawal Threshold (Log 10 (force (g) × 10 000)) on Day Post-Operative: 5.08 Log 10 (force (g) × 10 000)
  Withdrawal threshold (g) on day post-operative: 13.83 g
[8]
  Withdrawal Threshold (Log 10 (force (g) × 10 000)) on Day Post-Operative: 4.76 Log 10 (force (g) × 10 000)
  Withdrawal threshold (g) on day post-operative: 8.36 g
[9]
  Withdrawal Threshold (Log 10 (force (g) × 10 000)) on Day Post-Operative: 5.06 Log 10 (force (g) × 10 000)
  Withdrawal threshold (g) on day post-operative: 13.74 ± 2.42 g and 13.74 g
[10]
  Withdrawal Threshold (Log 10 (force (g) × 10 000)) on Day Post-Operative: 4.80 Log 10 (force (g) × 10 000)
  Withdrawal threshold (g) on day post-operative: 7.82 ± 1.43 g and 7.82 g
[11]
  Withdrawal Threshold (Log 10 (force (g) × 10 000)) on Day Post-Operative: 5.33 Log 10 (force (g) × 10 000)
  Withdrawal threshold (g) on day post-operative: 21.79 g
[12]
  Withdrawal Threshold (Log 10 (force (g) × 10 000)) on Day Post-Operative: 5.33 Log 10 (force (g) × 10 000)
  Withdrawal threshold (g) on day post-operative: 21.79 g
[13]
  Withdrawal Threshold (Log 10 (force (g) × 10 000)) on Day Post-Operative: 5.35 Log 10 (force (g) × 10 000)
  Withdrawal threshold (g) on day post-operative: 22.55 g
[14]
  Withdrawal Threshold (Log 10 (force (g) × 10 000)) on Day Post-Operative: 5.32 Log 10 (force (g) × 10 000)
  Withdrawal threshold (g) on day post-operative: 21.02 g
[15]
  Withdrawal Threshold (Log 10 (force (g) × 10 000)) on Day Post-Operative: 5.24 Log 10 (force (g) × 10 000)
  Withdrawal threshold (g) on day post-operative: 18.34 g
[16]
  Withdrawal Threshold (Log 10 (force (g) × 10 000)) on Day Post-Operative: 5.00 Log 10 (force (g) × 10 000)
  Withdrawal threshold (g) on day post-operative: 11.15 g
[17]
  Withdrawal Threshold (Log 10 (force (g) × 10 000)) on Day Post-Operative: 5.16 Log 10 (force (g) × 10 000)
  Withdrawal threshold (g) on day post-operative: 15.71 g
[18]
  Withdrawal Threshold (Log 10 (force (g) × 10 000)) on Day Post-Operative: 4.86 Log 10 (force (g) × 10 000)
  Withdrawal threshold (g) on day post-operative: 8.55 g
[19]
  Withdrawal Threshold (Log 10 (force (g) × 10 000)) on Day Post-Operative: 5.12 Log 10 (force (g) × 10 000)
  Withdrawal threshold (g) on day post-operative: 14.04 g
[20]
  Withdrawal Threshold (Log 10 (force (g) × 10 000)) on Day Post-Operative: 4.91 Log 10 (force (g) × 10 000)
  Withdrawal threshold (g) on day post-operative: 9.07 g
[21]
  Withdrawal Threshold (Log 10 (force (g) × 10 000)) on Day Post-Operative: 5.05 Log 10 (force (g) × 10 000)
  Withdrawal threshold (g) on day post-operative: 11.40 ± 0.81 g and 11.40 g
[22]
  Withdrawal Threshold (Log 10 (force (g) × 10 000)) on Day Post-Operative: 4.82 Log 10 (force (g) × 10 000)
  Withdrawal threshold (g) on day post-operative: 8.15 ± 1.43 g and 8.15 g
[23]
  Withdrawal Threshold (Log 10 (force (g) × 10 000)) on Day Post-Operative: 5.33 Log 10 (force (g) × 10 000)
  Withdrawal threshold (g) on day post-operative: 21.79 g
[24]
  Withdrawal Threshold (Log 10 (force (g) × 10 000)) on Day Post-Operative: 5.33 Log 10 (force (g) × 10 000)
  Withdrawal threshold (g) on day post-operative: 21.79 g
[25]
  Withdrawal Threshold (Log 10 (force (g) × 10 000)) on Day Post-Operative: 5.35 Log 10 (force (g) × 10 000)
  Withdrawal threshold (g) on day post-operative: 22.55 g
[26]
  Withdrawal Threshold (Log 10 (force (g) × 10 000)) on Day Post-Operative: 5.35 Log 10 (force (g) × 10 000)
  Withdrawal threshold (g) on day post-operative: 22.55 g
[27]
  Withdrawal Threshold (Log 10 (force (g) × 10 000)) on Day Post-Operative: 5.31 Log 10 (force (g) × 10 000)
  Withdrawal threshold (g) on day post-operative: 20.81 g
[28]
  Withdrawal Threshold (Log 10 (force (g) × 10 000)) on Day Post-Operative: 5.16 Log 10 (force (g) × 10 000)
  Withdrawal threshold (g) on day post-operative: 15.98 g
[29]
  Withdrawal Threshold (Log 10 (force (g) × 10 000)) on Day Post-Operative: 5.35 Log 10 (force (g) × 10 000)
  Withdrawal threshold (g) on day post-operative: 22.48 g
[30]
  Withdrawal Threshold (Log 10 (force (g) × 10 000)) on Day Post-Operative: 5.30 Log 10 (force (g) × 10 000)
  Withdrawal threshold (g) on day post-operative: 20.41 g
[31]
  Withdrawal Threshold (Log 10 (force (g) × 10 000)) on Day Post-Operative: 5.29 Log 10 (force (g) × 10 000)
  Withdrawal threshold (g) on day post-operative: 20.12 g
[32]
  Withdrawal Threshold (Log 10 (force (g) × 10 000)) on Day Post-Operative: 5.24 Log 10 (force (g) × 10 000)
  Withdrawal threshold (g) on day post-operative: 18.58 g
[33]
  Withdrawal Threshold (Log 10 (force (g) × 10 000)) on Day Post-Operative: 5.29 Log 10 (force (g) × 10 000)
  Withdrawal threshold (g) on day post-operative: 20.12 ± 1.67 g and 20.12 g
[34]
  Withdrawal Threshold (Log 10 (force (g) × 10 000)) on Day Post-Operative: 5.25 Log 10 (force (g) × 10 000)
  Withdrawal threshold (g) on day post-operative: 19.06 ± 2.17 g and 19.06 g
[35]
  Withdrawal Threshold (Log 10 (force (g) × 10 000)) on Day Post-Operative: 5.33 Log 10 (force (g) × 10 000)
  Withdrawal threshold (g) on day post-operative: 21.79 g
[36]
  Withdrawal Threshold (Log 10 (force (g) × 10 000)) on Day Post-Operative: 5.33 Log 10 (force (g) × 10 000)
  Withdrawal threshold (g) on day post-operative: 21.79 g
